Paper PMC4410085 (Bioorganic & medicinal chemistry, 2015)

Columns and labels:
[1] = system: A-10 cells; assay: Loss of cellular microtubules, indirect immunofluorescence; assay type: cell-based; conditions: result in words
[2] = target: PDGFR-β (Homo sapiens, UniProt P09619); assay: Phosphotyrosine ELISA cytoblot, PDGFR-β; assay type: cell-based; conditions: PDGFR-β expressing cells, versus sunitinib
[3] = system: Bovine brain tubulin; assay: Tubulin assembly assay; assay type: biochemical; conditions: read-out: Inhibition tubulin assembly IC50; ± SD; purified bovine brain tubulin

Sequence of PDGFR-β (P09619 33-1106): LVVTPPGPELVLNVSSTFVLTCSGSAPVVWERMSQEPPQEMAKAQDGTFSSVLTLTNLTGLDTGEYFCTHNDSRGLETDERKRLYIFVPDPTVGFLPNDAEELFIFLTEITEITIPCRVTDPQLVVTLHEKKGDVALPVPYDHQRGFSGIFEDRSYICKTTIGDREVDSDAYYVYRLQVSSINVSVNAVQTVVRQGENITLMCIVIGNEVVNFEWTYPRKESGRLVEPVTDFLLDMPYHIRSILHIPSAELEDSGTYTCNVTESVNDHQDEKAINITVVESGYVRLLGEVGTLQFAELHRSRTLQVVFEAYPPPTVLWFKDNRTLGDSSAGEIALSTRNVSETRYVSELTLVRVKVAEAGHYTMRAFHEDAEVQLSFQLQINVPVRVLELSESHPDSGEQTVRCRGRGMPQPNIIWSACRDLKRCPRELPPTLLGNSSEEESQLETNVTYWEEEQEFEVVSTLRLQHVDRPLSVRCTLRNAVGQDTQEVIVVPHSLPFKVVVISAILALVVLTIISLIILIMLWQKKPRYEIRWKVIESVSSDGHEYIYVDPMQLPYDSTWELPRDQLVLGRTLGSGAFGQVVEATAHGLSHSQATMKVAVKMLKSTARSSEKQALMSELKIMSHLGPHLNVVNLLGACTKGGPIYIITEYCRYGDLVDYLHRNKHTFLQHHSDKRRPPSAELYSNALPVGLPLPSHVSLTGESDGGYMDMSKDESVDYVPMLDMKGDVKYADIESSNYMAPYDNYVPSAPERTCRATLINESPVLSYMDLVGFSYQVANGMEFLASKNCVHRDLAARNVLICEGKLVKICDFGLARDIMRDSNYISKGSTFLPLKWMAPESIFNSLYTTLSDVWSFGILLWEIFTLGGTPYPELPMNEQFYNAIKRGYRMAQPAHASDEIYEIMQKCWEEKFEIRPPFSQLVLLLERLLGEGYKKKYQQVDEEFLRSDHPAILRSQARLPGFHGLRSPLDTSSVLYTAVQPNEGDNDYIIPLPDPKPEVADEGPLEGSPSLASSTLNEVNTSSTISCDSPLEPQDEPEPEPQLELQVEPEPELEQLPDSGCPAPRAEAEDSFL

fold better than sunitinib, PDGFR-β [2]	SMILES	effect on cellular microtubules [1]	IC50 [3] [nM]
about 4 fold	Cc1nc(N(C)c2ccc3c(c2)CCO3)c2cc(C)oc2n1 [Compound 6, N-(2,3-dihydro-1-benzofuran-5-yl)-N,2,6-trimethylfuro[2,3-d]pyrimidin-4-amine]	dose-dependent loss of cellular microtubules	–
–	COc1ccc(N(C)c2nc(C)nc3oc(C)cc23)cc1OC [Compound 3, N-(3,4-dimethoxyphenyl)-N,2,6-trimethylfuro[2,3-d]pyrimidin-4-amine]	dose-dependent loss of cellular microtubules	–
about 4 fold	Cc1nc(N(C)c2ccc3occc3c2)c2cc(C)oc2n1 [Compound 7, N-1-benzofuran-5-yl-N,2,6-trimethylfuro[2,3-d]pyrimidin-4-amine]	dose-dependent loss of cellular microtubules	–
–	COc1ccc(/C=C\c2cc(OC)c(OC)c(OC)c2)cc1O [CA-4]	–	1000 ± 90
–	COc1ccc2c(c1)CCN2c1nc(C)nc2oc(C)cc12 [Compound 8, 4-(5-methoxyindolin-1-yl)-2,6-dimethylfuro[2,3-d]pyrimidine]	no effect on cellular microtubules	–
–	COc1ccc2c(c1)CCCN2c1nc(C)nc2oc(C)cc12 [Compound 10, 4-(6-methoxy-3,4-dihydroquinolin-1(2H)-yl)-2,6-dimethylfuro[2,3-d]pyrimidine]	dose-dependent loss of cellular microtubules	–
–	CCOc1ccc(N(C)c2nc(C)nc3oc(C)cc23)cc1 [Compound 12, N-(4-ethoxyphenyl)-N,2,6-trimethylfuro[2,3-d]pyrimidin-4-amine]	dose-dependent loss of cellular microtubules	–
–	COc1ccc(N(C)c2nc(C)nc3oc(C)cc23)c(OC)c1 [Compound 2, N-(2,4-dimethoxyphenyl)-N,2,6-trimethylfuro[2,3-d]pyrimidin-4-amine]	dose-dependent loss of cellular microtubules	–
